The results in this text go back to US10196668B2, “Reagents and methods for screening MPS I, II, IIIA, IIIB, IVA, VI, and VII” (University of Washington through its Center for …, priority 2013, dated 2019).

Each structure is given as a SMILES string. Structures can show the parent of a compound that is named as a salt.

Test [1] deals with T1, N-acetylgalactosamine-4-sulfate-sulfatase (MPS-VI enzyme) (Homo sapiens, UniProt P15848).
T1 construct: from tissue; host or cells: dried blood spot (3 mm punch)
Description: MPS-VI enzyme assay with dried blood spot punch, tandem mass spectrometry. The format is biochemical. On the procedure:
The original and alternative MPS-VI substrates were compared in side-by-side enzyme assays as follows: 1 mM substrate, 10 uM internal standard in 30 uL of buffer (100 mM ammonium formate, pH 4.0, 7.5 mM barium(II) acetate, 5.0 mM cerium(III) acetate). A 3 mm punch of a dried blood spot was added, and the mixtures were incubated with shaking for 16 hours at 37 deg C. The reactions were quenched by addition of an aqueous suspension (1:1) of DEAE cellulose (Whatmann DE52) (100 uL), followed by addition of 400 uL of ethyl acetate. The mixture was mixed by up and down pipetting a few times and then centrifuged (10 min at 3000 rpm) to separate the liquid layers and pellet the DE52. A 300 uL portion of the upper ethyl acetate layer was transferred to a new well, and solvent was removed by evaporation with a stream of oil-free air. The residue was taken up in 100 uL of methanol/5 mM aqueous ammonium formate (80/20, v/v) and infused into the tandem mass spectrometer. The barium and cerium salts are present to precipitate free sulfate and phosphate present in the dried blood spot since these anions cause production inhibition of the MPS-VI enzyme. The DE52 is added to trap remaining substrate so only product and internal standard (which are charge neutral) are extracted into ethyl acetate. […]

The target of test [2] is T2, iduronate-2-sulfatase (MPS-II enzyme) (Homo sapiens, UniProt P22304).
T2 construct: from tissue; host or cells: dried blood spot (3 mm punch)
T2 sequence (P22304 34-550): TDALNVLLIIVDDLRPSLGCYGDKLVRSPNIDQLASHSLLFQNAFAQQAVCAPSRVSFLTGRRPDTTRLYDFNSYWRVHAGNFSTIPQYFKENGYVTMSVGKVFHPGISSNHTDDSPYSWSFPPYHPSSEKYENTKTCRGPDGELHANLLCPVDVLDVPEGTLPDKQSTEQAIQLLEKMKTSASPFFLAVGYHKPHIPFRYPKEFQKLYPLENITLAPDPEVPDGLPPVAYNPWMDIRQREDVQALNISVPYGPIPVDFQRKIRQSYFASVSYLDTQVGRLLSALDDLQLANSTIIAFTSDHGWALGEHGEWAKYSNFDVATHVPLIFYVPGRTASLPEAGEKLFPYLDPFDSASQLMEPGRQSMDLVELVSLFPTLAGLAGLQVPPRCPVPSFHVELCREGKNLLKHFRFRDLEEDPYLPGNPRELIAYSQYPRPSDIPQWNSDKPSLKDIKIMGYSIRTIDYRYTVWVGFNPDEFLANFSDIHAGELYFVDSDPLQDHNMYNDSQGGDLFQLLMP
Description: MPS-II enzyme assay with dried blood spot punch, tandem mass spectrometry. The class given is biochemical. On the procedure:
The original and alternative MPS-II substrates were compared in side-by-side enzyme assays as follows: 1 mM substrate, 5 uM internal standard in 30 uL of buffer (100 mM ammonium formate, pH 4.0, 7.5 mM barium(II) acetate, 5.0 mM cerium(III) acetate). A 3 mm punch of a dried blood spot was added, and the mixtures were incubated with shaking for 16 hours at 37 deg C. The reactions were quenched by addition of 200 uL of 44 mM citric acid followed by addition of 400 uL ethyl acetate and 100 uL of water. After mixing up and down a few times with the pipet, the samples were centrifuged (10 min at 3000 rpm) to separate the liquid layers. A 200 uL portion of the upper ethyl acetate layer was transferred to a new well, and solvent was removed by evaporation with a stream of oil-free air. The residue was taken up in 100 uL of methanol/5 mM aqueous ammonium formate (80/20, v/v) and infused into the tandem mass spectrometer. The barium and cerium salts are present to precipitate free sulfate and phosphate present in the dried blood spot since these anions cause production inhibition of the MPS-II enzyme. The citric acid is used to acidify the mixture so that the carboxylate of the iduronic acid portion of the MPS-II product and internal standard is protonated and is extracted into ethyl acetate. […]

Where [3] appears, read: 1 mM substrate, 3 mm dried blood spot punch, pH 4.0, 16 hours at 37 deg C.
Setting [4] is: activity with dried blood spot punch to that with blood-free punch.

T1 sequence (P15848 37-533): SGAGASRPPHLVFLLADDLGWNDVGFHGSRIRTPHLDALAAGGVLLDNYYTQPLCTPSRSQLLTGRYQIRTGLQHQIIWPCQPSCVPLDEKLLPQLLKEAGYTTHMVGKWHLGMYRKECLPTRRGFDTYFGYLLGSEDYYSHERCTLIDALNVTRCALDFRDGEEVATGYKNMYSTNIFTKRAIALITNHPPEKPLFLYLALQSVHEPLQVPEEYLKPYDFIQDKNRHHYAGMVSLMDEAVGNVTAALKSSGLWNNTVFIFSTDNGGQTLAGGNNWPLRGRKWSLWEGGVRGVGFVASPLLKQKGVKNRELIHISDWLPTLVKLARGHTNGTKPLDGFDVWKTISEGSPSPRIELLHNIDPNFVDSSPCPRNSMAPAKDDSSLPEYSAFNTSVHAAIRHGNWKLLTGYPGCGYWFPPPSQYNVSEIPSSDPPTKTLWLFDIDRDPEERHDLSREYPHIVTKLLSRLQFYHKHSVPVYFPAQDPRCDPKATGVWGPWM

Turning to `CCCCC(=O)N(CCCCCNC(=O)c1ccccc1)CCC(=O)Nc1ccc(OC2OC(CO)C(OS(=O)(=O)O)C(O)C2NC(C)=O)cc1` [Alternative MPS-VI, Sodium (2R,3R,4R,5R,6S)-5-acetamido-6(4(3-(N (5-benzamidopentyl)-pentanamido)propanamido)phenoxy)-4-hydroxy-2-(hydroxymethyl)tetrahydro-2H-pyran-3-yl sulfate], the “Enzymatic Activity” value in test [1] (setting [3]) is given as 1.5 umole/hr/L blood. Moreover, the “blood-no blood assay ratio” value in test [1] (setting [4]) was found to be 77.9.
For the molecule `CCCCC(=O)N(CCCCCCNC(=O)c1ccccc1)CCC(=O)Nc1ccc(OC2OC(C(=O)O)C(O)C(O)C2OS(=O)(=O)O)cc1` (stereo not shown) [Alternative MPS-II], the “Enzymatic Activity” value in test [2] (setting [3]) amounted to 6 umole/hr/L blood. Moreover, in test [2] (setting [4]), the “blood-no blood assay ratio” value stood at 53.
